# Test results as given in patent US12162890B2 (Novartis AG, priority 2015, dated 2024).
# Target: HEK293 cells with stable expression of the GRIN1 gene and tetracycline-inducible expression of the GRIN2B gene (NMDA receptor, NR2B) (Homo sapiens, UniProt Q13224)
# Assay: Fluo-8 Ca2+ flux assay: reversal of Ro 25-6981-mediated suppression of the Ca2+ response to co-agonist (glutamate/glycine); note: test concentration or dose not given here
# Format: cell-based
# Conditions: reversal of the Ro 25-6981 suppression of the Ca2+ response to co-agonist (glutamate/glycine)
# Sequence of HEK293 cells with stable expression of the GRIN1 gene and tetracycline-inducible expression of the GRIN2B gene (NMDA receptor, NR2B) (Q13224 27-1484, other chains not shown): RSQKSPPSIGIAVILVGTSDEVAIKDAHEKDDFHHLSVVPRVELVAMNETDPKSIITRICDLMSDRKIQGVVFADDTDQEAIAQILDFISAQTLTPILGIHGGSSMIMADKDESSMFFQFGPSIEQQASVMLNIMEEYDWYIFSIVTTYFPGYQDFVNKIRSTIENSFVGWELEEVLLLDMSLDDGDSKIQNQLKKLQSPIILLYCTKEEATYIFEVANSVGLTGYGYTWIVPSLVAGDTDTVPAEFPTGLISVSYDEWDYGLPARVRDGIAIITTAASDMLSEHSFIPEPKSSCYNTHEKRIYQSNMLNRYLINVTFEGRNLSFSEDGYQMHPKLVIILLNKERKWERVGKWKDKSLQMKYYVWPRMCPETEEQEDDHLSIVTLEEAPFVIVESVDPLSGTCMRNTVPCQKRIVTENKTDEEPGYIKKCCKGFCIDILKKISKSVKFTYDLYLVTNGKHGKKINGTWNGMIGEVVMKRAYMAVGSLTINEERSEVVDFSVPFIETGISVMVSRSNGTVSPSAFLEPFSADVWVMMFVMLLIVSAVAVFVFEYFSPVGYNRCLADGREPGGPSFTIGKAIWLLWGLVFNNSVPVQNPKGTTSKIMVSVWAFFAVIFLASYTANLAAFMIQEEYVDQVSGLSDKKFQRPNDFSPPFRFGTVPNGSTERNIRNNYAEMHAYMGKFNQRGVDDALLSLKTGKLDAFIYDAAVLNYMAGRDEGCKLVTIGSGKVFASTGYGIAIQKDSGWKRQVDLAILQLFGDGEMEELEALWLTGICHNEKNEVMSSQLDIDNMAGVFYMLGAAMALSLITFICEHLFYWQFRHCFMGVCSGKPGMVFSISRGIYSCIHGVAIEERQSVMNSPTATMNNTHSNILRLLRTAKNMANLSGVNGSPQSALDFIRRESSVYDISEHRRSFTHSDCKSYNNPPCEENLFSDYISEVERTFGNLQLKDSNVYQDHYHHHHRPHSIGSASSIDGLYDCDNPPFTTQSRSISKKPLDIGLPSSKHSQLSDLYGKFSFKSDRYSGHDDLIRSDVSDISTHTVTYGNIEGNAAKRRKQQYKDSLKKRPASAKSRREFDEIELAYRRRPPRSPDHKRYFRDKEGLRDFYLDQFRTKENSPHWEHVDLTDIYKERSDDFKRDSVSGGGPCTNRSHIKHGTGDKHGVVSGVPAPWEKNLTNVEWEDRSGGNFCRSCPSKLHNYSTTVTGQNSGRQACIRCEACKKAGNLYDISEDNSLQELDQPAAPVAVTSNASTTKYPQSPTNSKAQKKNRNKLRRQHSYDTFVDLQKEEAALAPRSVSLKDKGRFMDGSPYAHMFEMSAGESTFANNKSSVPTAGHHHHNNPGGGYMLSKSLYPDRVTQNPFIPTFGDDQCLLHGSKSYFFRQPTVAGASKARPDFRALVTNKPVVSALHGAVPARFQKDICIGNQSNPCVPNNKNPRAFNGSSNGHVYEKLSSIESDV
row,Compound,Response Recovered (%)
1,"O=C(Cn1cnc2[nH]cc(-c3ccc(Cl)c(C(F)(F)F)c3)c2c1=O)N1CCCC1 [Example 148, 5-(4-chloro-3-(trifluoromethyl)phenyl)-3-(2-oxo-2-(pyrrolidin-1-yl)ethyl)-3H-pyrrolo[2,3-d]pyrimidin-4(7H)-one]",66
2,"CCC1(F)CN(C(=O)Cn2ccc3scc(-c4cnc(Cl)c(Cl)c4)c3c2=O)C1 [Example 75, 3-(5,6-dichloropyridin-3-yl)-5-(2-(3-ethyl-3-fluoroazetidin-1-yl)-2-oxoethyl)thieno[3,2-c]pyridin-4(5H)-one]",78
3,"O=C(Cn1ccc2scc(-c3ccc(Cl)c(C(F)(F)F)c3)c2c1=O)N1C[C@@H](F)[C@@H](F)C1 [Example 14, 3-(4-chloro-3-(trifluoromethyl)phenyl)-5-(2-((3S,4R)-3,4-difluoropyrrolidin-1-yl)-2-oxoethyl)thieno[3,2-c]pyridin-4(5H)-one]",99
4,"O=C(Cn1ccc2scc(-c3ccc(F)c(Cl)c3)c2c1=O)N1CC[C@@H](F)C1 [Example 41, (R)-3-(3-chloro-4-fluorophenyl)-5-(2-(3-fluoropyrrolidin-1-yl)-2-oxoethyl)thieno[3,2-c]pyridin-4(5H)-one]",77
5,"O=C(Cn1ccc2ccc(-c3ccc(Cl)c(C(F)(F)F)c3)cc2c1=O)N1CCCC1 [Example 310, 7-(4-chloro-3-(trifluoromethyl)phenyl)-2-(2-oxo-2-(pyrrolidin-1-yl)ethyl)isoquinolin-1(2H)-one]",3
6,"CCOCc1cn(CC(=O)N2CCC(F)C2)c(=O)c2c(-c3ccc(F)c(Cl)c3)csc12 (stereo not drawn) [Example 130, 3-(3-chloro-4-fluorophenyl)-7-(ethoxymethyl)-5-(2-(3-fluoropyrrolidin-1-yl)-2-oxoethyl)thieno[3,2-c]pyridin-4(5H)-one]",42
7,"O=C(Cn1cnc2[nH]cc(-c3ccc(Cl)cc3)c2c1=O)N1CCCC1 [Example 150, 5-(4-chlorophenyl)-3-(2-oxo-2-(pyrrolidin-1-yl)ethyl)-3H-pyrrolo[2,3-d]pyrimidin-4(7H)-one]",31
8,"N=C(NO)c1cn(CC(=O)N2CCCC2)c(=O)c2c(-c3ccc(F)c(C(F)(F)F)c3)csc12 [Example 108, 3-(4-fluoro-3-(trifluoromethyl)phenyl)-N-hydroxy-4-oxo-5-(2-oxo-2-(pyrrolidin-1-yl)ethyl)-4,5-dihydrothieno[3,2-c]pyridine-7-carboximidamide]",64
9,"Cn1cc(-c2ccc(Cl)c(F)c2)c2c(=O)n(CC(=O)N3CCCC3)cnc21 [Example 165, 5-(4-chloro-3-fluorophenyl)-7-methyl-3-(2-oxo-2-(pyrrolidin-1-yl)ethyl)-3H-pyrrolo[2,3-d]pyrimidin-4(7H)-one]",25
10,"CC1(F)CN(C(=O)Cn2ccc3scc(-c4ccc(F)c(Cl)c4)c3c2=O)C1 [Example 39, 3-(3-chloro-4-fluorophenyl)-5-(2-(3-fluoro-3-methylazetidin-1-yl)-2-oxoethyl)thieno[3,2-c]pyridin-4(5H)-one]",140
11,"COCn1cc(-c2ccc(F)c(C(F)(F)F)c2)c2c(=O)n(CC(=O)N3CCC(F)C3)cnc21 (stereo not drawn) [Example 189, 5-(4-fluoro-3-(trifluoromethyl)phenyl)-3-(2-(3-fluoropyrrolidin-1-yl)-2-oxoethyl)-7-(methoxymethyl)-3H-pyrrolo[2,3-d]pyrimidin-4(7H)-one]",39
12,"CCC1(F)CN(C(=O)Cn2ccc3scc(-c4cnc(Cl)c(C)c4)c3c2=O)C1 [Example 85, 3-(6-chloro-5-methylpyridin-3-yl)-5-(2-(3-ethyl-3-fluoroazetidin-1-yl)-2-oxoethyl)thieno[3,2-c]pyridin-4(5H)-one]",16
13,"O=C(Cn1ccc2[nH]cc(-c3ccc(Cl)c(F)c3)c2c1=O)N1CCCC1 [Example 211, 3-(4-chloro-3-fluorophenyl)-5-(2-oxo-2-(pyrrolidin-1-yl)ethyl)-1H-pyrrolo[3,2-c]pyridin-4(5H)-one]",55
14,"O=C(Cn1ccc2cccc(-c3ccc(F)c(Cl)c3)c2c1=O)N1CCCC1 [Example 303, 8-(3-chloro-4-fluorophenyl)-2-(2-oxo-2-(pyrrolidin-1-yl)ethyl)isoquinolin-1(2H)-one]",46
15,"O=C(Cn1ccc2scc(-c3ccc(Cl)c(Cl)c3)c2c1=O)N1CC2C(C1)C2(F)F (stereo not drawn) [Example 66, 3-(3,4-dichlorophenyl)-5-(2-(6,6-difluoro-3-azabicyclo[3.1.0]hex-an-3-yl)-2-oxoethyl)thieno[3,2-c]pyridin-4(5H)-one]",26
16,"O=C(Cn1cc(CN2CCCC2)c2scc(-c3ccc(F)c(C(F)(F)F)c3)c2c1=O)N1CCC(F)C1 (stereo not drawn) [Example 112, 3-(4-fluoro-3-(trifluoromethyl)phenyl)-5-(2-(3-fluoropyrrolidin-1-yl)-2-oxoethyl)-7-(pyrrolidin-1-ylmethyl)thieno[3,2-c]pyridin-4(5H)-one]",89
17,"Cc1cc(-c2csc3ccn(CC(=O)N4CC(C)(F)C4)c(=O)c23)ccc1F [Example 23, 5-(2-(3-fluoro-3-methylazetidin-1-yl)-2-oxoethyl)-3-(4-fluoro-3-methylphenyl)thieno[3,2-c]pyridin-4(5H)-one]",100
18,"CCn1cc(-c2ccc(Cl)c(F)c2)c2c(=O)n(CC(=O)N3CC(F)(F)C3)cnc21 [Example 171, 5-(4-chloro-3-fluorophenyl)-3-(2-(3,3-difluoroazetidin-1-yl)-2-oxoethyl)-7-ethyl-3H-pyrrolo[2,3-d]pyrimidin-4(7H)-one]",15

# Second part, the compound after the results:
row,Response Recovered (%),Compound
1,4,"O=C(Cn1cnc2[nH]nc(-c3ccc(Cl)c(F)c3)c2c1=O)N1CCCC1 [Example 319, 3-(4-chloro-3-fluorophenyl)-5-(2-oxo-2-(pyrrolidin-1-yl)ethyl)-1H-pyrazolo[3,4-d]pyrimidin-4(5H)-one]"
2,23,"O=C(Cn1ncc2scc(-c3ccc(Cl)c(C(F)(F)F)c3)c2c1=O)N1CCCC1 [Example 335, 3-(4-chloro-3-(trifluoromethyl)phenyl)-5-(2-oxo-2-(pyrrolidin-1-yl)ethyl)thieno[2,3-d]pyridazin-4(5H)-one]"
3,8,"O=C(Cn1ncc2scc(-c3ccc(F)c(Cl)c3)c2c1=O)N1CC(F)(F)C1 [Example 341, 3-(3-chloro-4-fluorophenyl)-5-(2-(3,3-difluoroazetidin-1-yl)-2-oxoethyl)thieno[2,3-d]pyridazin-4(5H)-one]"
4,3,"O=C(Cn1ncc2scc(-c3ccc(Cl)c(F)c3)c2c1=O)N1CCCC1 [Example 336, 3-(4-chloro-3-fluorophenyl)-5-(2-oxo-2-(pyrrolidin-1-yl)ethyl)thieno[2,3-d]pyridazin-4(5H)-one]"
5,72,"O=C(Cn1ccn2c(Br)cc(-c3ccc(F)c(C(F)(F)F)c3)c2c1=O)N1CCC(F)C1 (stereo not drawn) [Example 423, 6-bromo-8-(4-fluoro-3-(trifluoromethyl)phenyl)-2-(2-(3-fluoropyrrolidin-1-yl)-2-oxoethyl)pyrrolo[1,2-a]pyrazin-1(2H)-one]"
6,2,"O=C(Cn1ccc2ccc(-c3ccc(Cl)c(Cl)c3)cc2c1=O)N1CCC(F)C1 (stereo not drawn) [Example 315, 7-(3,4-dichlorophenyl)-2-(2-(3-fluoropyrrolidin-1-yl)-2-oxoethyl)isoquinolin-1(2H)-one]"
7,54,"O=C(Cn1ccn2ncc(-c3ccc(Cl)c(Cl)c3)c2c1=O)N1CCC(F)C1 (stereo not drawn) [Example 327, 3-(3,4-dichlorophenyl)-5-(2-(3-fluoropyrrolidin-1-yl)-2-oxoethyl)pyrazolo[1,5-a]pyrazin-4(5H)-one]"
8,20,"O=C(Cn1ncc2scc(-c3ccc(Cl)c(C(F)(F)F)c3)c2c1=O)N1CC(F)(F)C1 [Example 339, 3-(4-chloro-3-(trifluoromethyl)phenyl)-5-(2-(3,3-difluoroazetidin-1-yl)-2-oxoethyl)thieno[2,3-d]pyridazin-4(5H)-one]"
9,79,"CC1(F)CN(C(=O)Cn2ccn3c(C4CC4)nc(-c4ccc(F)c(C(F)(F)F)c4)c3c2=O)C1 [Example 438, 3-cyclopropyl-1-(4-fluoro-3-(trifluoromethyl)phenyl)-7-(2-(3-fluoro-3-methylazetidin-1-yl)-2-oxoethyl)imidazo[1,5-a]pyrazin-8(7H)-one]"
10,58,"O=C(Cn1ccn2ccc(-c3ccc(Cl)c(Cl)c3)c2c1=O)N1CCC(F)C1 (stereo not drawn) [Example 395, 8-(3,4-dichlorophenyl)-2-(2-(3-fluoropyrrolidin-1-yl)-2-oxoethyl)pyrrolo[1,2-a]pyrazin-1(2H)-one]"
11,59,"Cc1cn(CC(=O)N2CCC(F)C2)c(=O)c2c(-c3ccc(F)c(C(F)(F)F)c3)ccn12 (stereo not drawn) [Example 411, 8-(4-fluoro-3-(trifluoromethyl)phenyl)-2-(2-(3-fluoropyrrolidin-1-yl)-2-oxoethyl)-4-methylpyrrolo[1,2-a]pyrazin-1(2H)-one]"
12,3,"O=C(Cn1cnc2csc(-c3ccc(Cl)cc3)c2c1=O)N1CCC1 [Example 349, 3-(2-(azetidin-1-yl)-2-oxoethyl)-5-(4-chlorophenyl)thieno[3,4-d]pyrimidin-4(3H)-one]"
13,110,"CC1(F)CN(C(=O)Cn2ccn3ncc(-c4ccc(F)c(Cl)c4)c3c2=O)C1 [Example 329, 3-(3-chloro-4-fluorophenyl)-5-(2-(3-fluoro-3-methylazetidin-1-yl)-2-oxoethyl)pyrazolo[1,5-a]pyrazin-4(5H)-one]"
14,120,"O=C(Cn1ccn2c(C3CC3)nc(-c3ccc(F)c(Cl)c3)c2c1=O)N1CC(F)(CF)C1 [Example 439, 1-(3-chloro-4-fluorophenyl)-3-cyclopropyl-7-(2-(3-fluoro-3-(fluoromethyl)azetidin-1-yl)-2-oxoethyl)imidazo[1,5-a]pyrazin-8(7H)-one]"
15,7.3,"Cc1nc(-c2ccc(F)c(Cl)c2)c2c(=O)n(CC(=O)N3CC(F)(F)C3)ccn12 [Example 430, 1-(3-chloro-4-fluorophenyl)-7-(2-(3,3-dilfuoroazetidin-1-yl)-2-oxoethyl)-3-methylimidazo[1,5-a]pyrazin-8(7H)-one]"
